The structures appear in SMILES notation. A value given as a limit tells only on which side of the number the result lay.

In data set [1] the target is T1, EGFR (Homo sapiens, UniProt P00533).
T1 construct: purchased Invitrogen
Kind of data set: EGFR kinase assay. In kind it is biochemical. The following applies: EGFR-TK inhibitory assay; means ± SE, three repeats. Here is the method:
An ATP solution and a kinase/peptide mixture were developed just before use. […] Then, […] of the prepared solution was added to each well. The plate was incubated for 1 h and determined by an ELISA Reader (PerkinElmer, USA). Curve fitting using Graph Pad Prism 5 was constructed. Each experiment was repeated three times. IC50 was represented as means ± SE.

The subject of data set [2] is MCF-7. As to the kind of experiment: MTT cytotoxicity assay, MCF-7. In kind it is cell-based, human. The conditions noted are these: for IC50: Homo sapiens. Here is the method: (§1) The 96-well plate was incubated for 24 h before the MTT assay. […] Cells were cultured using DMEM supplemented with 10% foetal bovine serum, 10 µg/mL insulin and 1% penicillin–streptomycin. Reconstituted MTT (10%) was added and incubated for 2 h. Formazan crystals were dissolved by the MTT solubilizing solution after incubation. Absorbance was measured at a wavelength of 570 nm[28].
In general terms: Formazan colour is commonly taken as a measure of viable cells.

The test system of data set [3] is MDA-MB-231. As to the kind of experiment: MTT cytotoxicity assay, MDA-MB-231. In kind it is cell-based, human. The conditions noted are these: for IC50: Homo sapiens. On the procedure:
as §1

Data set [4] concerns HCT-116. Kind of data set: MTT cytotoxicity assay, HCT-116. In kind it is cell-based, human. The following applies: for IC50: Homo sapiens. On the procedure: as §1
In data set [5] the test system is HepG-2. As to the kind of experiment: MTT cytotoxicity assay, HepG-2. In kind it is cell-based, human. The conditions noted are these: Homo sapiens. Here is the method: as §1
The test system of data set [6] is HCT-116. As to the kind of experiment: Radiosensitizing evaluation, HCT-116. Format: cell-based. The following applies: Homo sapiens, HCT-116, light or radiation study, 48 h; single dose of 8 Gy gamma radiation; measured two days after irradiation. On the procedure: (§2) Irradiation was performed at the National Centre for Radiation Research and Technology (NCRRT), Egyptian Atomic Energy Authority, using Gamma cell-40 (^137Cs) source. The promising compounds 5 and 6 were selected to be re-evaluated for in vitro cytotoxic activity after the cells containing the compounds were gamma-irradiated at a dose level of 8 Gy with a dose rate of 0.758 rad/s for 17.59 min. Cytotoxicity was measured two days after irradiation. The IC50 of the tested compounds is calculated using GraphPad Prism 5.

Data set [7] concerns MCF-7. As to the kind of experiment: Radiosensitizing evaluation, MCF-7. In kind it is cell-based. The following applies: Homo sapiens, MCF7, light or radiation study, 48 h; single dose of 8 Gy gamma radiation; measured two days after irradiation. Here is the method:
as §2

The subject of data set [8] is MDA-MB-231. As to the kind of experiment: Radiosensitizing evaluation, MDA-MB-231. The following applies: Homo sapiens, MDA-MB-231, light or radiation study, 48 h; single dose of 8 Gy gamma radiation; measured two days after irradiation. Format: cell-based. On the procedure:
as §2

Data set [9] deals with HepG-2. As to the kind of experiment: Radiosensitizing evaluation, HepG-2. In kind it is cell-based. The conditions noted are these: Homo sapiens, HepG2, light or radiation study, 48 h; single dose of 8 Gy gamma radiation; measured two days after irradiation. Here is the method: as §2
The test system of data set [10] is MCF-10A normal breast cell line. Kind of data set: MTT cytotoxicity assay, MCF-10A normal cells. The following applies: Homo sapiens. In kind it is cell-based. On the procedure:
as §1

Where [11] appears, read: MCF7, MTT assay, mean of three experiments ± SE, read-out: IC50 MCF-7.
[12] abbreviates: MDA-MB-231, MTT assay, mean of three experiments ± SE, read-out: IC50 MDA-MB-231.
Setting [13] is: HCT-116, MTT assay, mean of three experiments ± SE, read-out: IC50 HCT-116.
[14] abbreviates: HepG2, MTT assay, mean of three experiments ± SE, read-out: IC50 HepG-2.
The mark [15] stands for this setting: relative to MCF-10A normal cells.

T1 sequence (P00533 25-1210): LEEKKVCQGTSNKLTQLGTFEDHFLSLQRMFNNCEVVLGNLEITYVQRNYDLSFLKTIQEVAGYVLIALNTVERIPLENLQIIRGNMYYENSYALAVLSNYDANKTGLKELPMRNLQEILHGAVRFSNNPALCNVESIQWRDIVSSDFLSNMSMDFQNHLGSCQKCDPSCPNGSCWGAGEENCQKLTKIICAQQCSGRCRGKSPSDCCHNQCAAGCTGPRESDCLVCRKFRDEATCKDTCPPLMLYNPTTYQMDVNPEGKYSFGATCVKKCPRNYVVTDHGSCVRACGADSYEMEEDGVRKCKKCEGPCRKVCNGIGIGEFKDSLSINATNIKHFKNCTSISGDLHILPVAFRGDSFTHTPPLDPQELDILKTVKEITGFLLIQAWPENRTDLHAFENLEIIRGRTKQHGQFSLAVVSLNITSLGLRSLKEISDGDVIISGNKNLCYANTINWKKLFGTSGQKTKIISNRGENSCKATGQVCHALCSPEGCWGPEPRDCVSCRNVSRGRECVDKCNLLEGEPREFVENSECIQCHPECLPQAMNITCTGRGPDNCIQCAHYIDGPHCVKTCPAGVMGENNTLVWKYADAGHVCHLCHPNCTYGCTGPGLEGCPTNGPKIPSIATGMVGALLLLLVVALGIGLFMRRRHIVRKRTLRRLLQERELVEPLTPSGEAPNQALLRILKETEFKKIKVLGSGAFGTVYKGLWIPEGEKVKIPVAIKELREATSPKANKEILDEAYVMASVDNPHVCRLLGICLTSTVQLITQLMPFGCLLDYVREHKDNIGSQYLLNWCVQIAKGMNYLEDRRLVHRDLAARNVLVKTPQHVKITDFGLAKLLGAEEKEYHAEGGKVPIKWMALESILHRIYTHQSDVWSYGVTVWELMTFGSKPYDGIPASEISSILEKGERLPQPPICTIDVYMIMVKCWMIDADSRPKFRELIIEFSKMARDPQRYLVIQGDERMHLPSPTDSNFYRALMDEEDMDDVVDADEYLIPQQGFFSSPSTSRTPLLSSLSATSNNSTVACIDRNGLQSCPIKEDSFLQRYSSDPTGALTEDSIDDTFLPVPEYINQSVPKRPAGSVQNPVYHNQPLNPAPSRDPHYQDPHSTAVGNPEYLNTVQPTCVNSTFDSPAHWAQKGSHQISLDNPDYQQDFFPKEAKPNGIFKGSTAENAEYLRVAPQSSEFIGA

`CC(Nc1nc2ccccc2c(=O)n1N)C(O)c1ccccc1` (stereo not shown) [Compound 11, 3-amino-2-(1-hydroxy-1-phenylpropan-2-ylamino)quinazolin-4(3H)-one]: the melting point was determined as 147.5 °C. This molecule also returned a concentration for half-maximal inhibition (IC50) in [1] of 3.87 ± 0.11 µM. Also, the IC50 in [2] (setting [11]) worked out at 39.42 ± 0.3 µM. In addition, the IC50 in [3] (setting [12]) came to 16.39 ± 0.06 µM. Moreover, the IC50 in data set [4] (setting [13]) was 44.15 ± 0.22 µM. Besides, the IC50 in data set [5] (setting [14]) was 33.65 ± 0.26 µM.
With `Nn1c(=S)[nH]c2ccccc2c1=O` [Compound 6, 3-Amino-2-thioxo-2,3-dihydroquinazolin-4(1H)-one], the melting point came to 261.2 °C. Further, the IC50 in [6] was 6.98 ± 0.25 µM. For the same molecule, in data set [1], the IC50 came out at 2.13 ± 0.21 µM. In data set [7], the IC50 was 4.26 ± 0.01 µM. Further, in [8], the half-maximal inhibitory concentration (IC50) was determined as 1.04 ± 0.04 µM. The IC50 in [2] (setting [11]) is 7.23 ± 0.07 µM. The “Selectivity index (SI) MCF-7” value in data set [2] (setting [15]) is listed as 6.81. Moreover, in data set [3] (setting [12]), the IC50 amounted to 1.6 ± 0.01 µM. Moreover, the “Selectivity index (SI) MDA-MB-231” value in [3] (setting [15]) is reported as 30.75. The half-maximal inhibitory concentration (IC50) in data set [9] turned out to be 14.26 ± 0.11 µM. The concentration for half-maximal inhibition (IC50) in data set [4] (setting [13]) turned out to be 10.6 ± 0.19 µM. The “Selectivity index (SI) HCT-116” value in [4] (setting [15]) worked out at 4.64. The molecule also displayed an IC50 in data set [10] of 49.2 ± 1.52 µM. In addition, the concentration for half-maximal inhibition (IC50) in [5] (setting [14]) was found to be 17.6 ± 0.15 µM.
Turning to `C#Cc1cccc(Nc2ncnc3cc(OCCOC)c(OCCOC)cc23)c1` [Erlotinib, reference compound], the half-inhibitory concentration (IC50) amounted to 4.48 ± 0.02 µM in data set [2] (MCF7, read-out: IC50 MCF-7); 3.73 ± 0.01 µM in data set [3] (MDA-MB-231, read-out: IC50 MDA-MB-231); 2.78 ± 0.04 µM in [4] (HCT-116, read-out: IC50 HCT-116); 3.04 ± 0.2 µM in data set [5] (HepG2, read-out: IC50 HepG-2).
For the molecule `CCOc1nc2ccccc2c(=O)n1N` [Compound 13, 3-amino-2-ethoxyquinazolin-4(3H)-one], the IC50 in data set [1] is 8.35 ± 0.32 µM; in data set [2] (setting [11]), over 100 µM; in [3] (setting [12]), 81.43 ± 0.27 µM; in data set [4] (setting [13]), over 100 µM; in data set [5] (setting [14]), over 100 µM.
`CSc1nc2ccccc2c(=O)n1N` [Compound 7, 3-Amino-2-(methylthio)quinazolin-4(3H)-one] registered a melting point of 178.9 °C. This molecule also returned an IC50 in [1] of 3.44 ± 0.15 µM. Also, the half-inhibitory concentration (IC50) in data set [2] (setting [11]) turned out to be 68.1 ± 1.21 µM. In [3] (setting [12]), the IC50 amounted to 23.48 ± 0.06 µM. Also, the half-inhibitory concentration (IC50) in data set [4] (setting [13]) worked out at 59.2 ± 0.78 µM. Moreover, the IC50 in data set [5] (setting [14]) was 48.3 ± 0.93 µM.
As to `O=c1c2ccccc2nc2[nH]n3c(=O)c4ccccc4nc3[nH]n12` [Compound 14, [1,2,4,5]tetrazino[3,2-b:6,5-b']diquinazoline-8,16(6H,14H)-dione], the melting point is 294.1 °C. In data set [1], the concentration for half-maximal inhibition (IC50) stood at 1.39 ± 0.27 µM. In addition, the IC50 in [2] (setting [11]) stood at 30.12 ± 0.19 µM. The IC50 in data set [3] (setting [12]) is 26.55 ± 0.04 µM. Further, the 50% inhibitory concentration (IC50) in [4] (setting [13]) worked out at 29.32 ± 0.16 µM. Besides, the IC50 in data set [5] (setting [14]) was 41.25 ± 0.23 µM.
As to `Nn1c(O)nc2ccccc2c1=O` [Compound 12, 3-Amino-2-hydroxyquinazolin-4(3H)-one], the half-maximal inhibitory concentration (IC50) in data set [1] turned out to be 7.39 ± 0.28 µM; in data set [2] (setting [11]), 66.3 ± 0.72 µM; in data set [3] (setting [12]), 57.78 ± 0.43 µM; in data set [4] (setting [13]) it was 50.75 ± 0.29 µM; in data set [5] (setting [14]), 20.5 ± 0.31 µM.

By melting point is commonly meant the temperature, or range, at which the solid turns liquid. For orientation: IC50 means the midpoint of a concentration-inhibition curve.

The record behind these values is publication PMC7781899, “Synthesis of some quinazolinones inspired from the natural alkaloid L-norephedrine as EGFR inhibitors and radiosensitizers” (Journal of Enzyme Inhibition and Medicinal Chemistry, 2020).
